Numbered stars: 1 amine (or outer) side, 2 acyl side, 3 side chain; on linkers, the order of the positions; unused ones are H or OH. Bridge positions count the residues as written; N and C are the ends. Square brackets hold non-standard residues; d marks the D form. Peptide text beside a SMILES is read from it. * marks the point of attachment. Orn(4R-OH,5R-OCH2CH2NMe3+) = C[N+](C)(C)CCO[C@@H](N[*:3])[C@H](O)C[C@H](N[*:1])C(=O)[*:2]; hTyr(3S-OH,4S-OH) = N[C@H](C(=O)O)[C@H](O)[C@@H](O)c1ccc(O)cc1; X1 = CCCCCOc1cc(F)c(C#Cc2ccc3cc(C(=O)*)ccc3c2)cc1F; Pro(3S-OH,4S-Me) = C[C@H]1CN[C@H](C(=O)O)[C@H]1O; Hyp = O=C(O)[C@@H]1C[C@@H](O)CN1
Key:
[1] = test system: Candida albicans ATCC MYA-4788; experiment: MIC assay, Candida standard strain (CLSI M27-A3); format: cell-based; settings: 24 h, 35° C.
Method: (§1) After gradient dilution of test compounds, an MIC assay was performed on a Candida standard strain, and an MEC assay was performed on an Aspergillus standard strain. […] A cryopreserved strain was passaged at least 2 times. A single colony was picked and resuspended in a physiological saline or sterile water tube, and the tube was subjected to vortex shaking. The Candida suspension was adjusted to 0.5 McF (1×10^6-5×10^6 CFU/mL) at a wavelength of 530 nm by using a spectrophotometer. After being diluted 50 times with physiological saline, the Candida suspension was diluted 20 times with 1×RPMI 1640 broth (1×10^3-5×10^3 CFU/mL). 10 μL of the diluted Candida suspension was coated on an SDA plate for colony counting, with a range of about 10-50 single colonies. After a prepared drug sensitive plate was completely dissolved at room temperature, the Candida suspension was added to the 96-well plate by using a multi-channel pipettor at 100 μL/well. At this time, the concentration of Candida in each well should be 0.5×10^3-2.5×10^3 CFU/mL. A yeast-type fungus assay plate was placed in an incubator, and incubated for 24 h at 35° C. and 85% humidity, and then the MIC values were read. For echinocandin-based drugs, Aspergillus was incubated for 21-26 h at 28° C., and then the MEC results were read. Yeast-type fungi: A 96-well plate was attached with a disposable parafilm, shaken for uniformly mixing, and observed with naked eyes by using a plate reader microscope. […] Pictures were taken and saved by using an automated plate reader.

[2] = test system: Candida albicans ATCC MYA-427; experiment: MIC assay, Candida standard strain (CLSI M27-A3); format: cell-based; settings: 24 h, 35° C.
Method: as §1

[3] = test system: Candida albicans ATCC 18804; experiment: MIC assay, Candida standard strain (CLSI M27-A3); format: cell-based; settings: ATCC18804, 24 h, 35° C.
Method: as §1

[4] = test system: Candida albicans ATCC 90029; experiment: MIC assay, Candida standard strain (CLSI M27-A3); format: cell-based; settings: ATCC90029, 24 h, 35° C.
Method: as §1

[5] = test system: Candida albicans CICC 1943; experiment: MIC assay, Candida standard strain (CLSI M27-A3); format: cell-based; settings: CICC1943, 24 h, 35° C.
Method: as §1

[6] = test system: Candida albicans ATCC 10231; experiment: MIC assay, Candida standard strain (CLSI M27-A3); format: cell-based; settings: ATCC10231, 24 h, 35° C., >50% growth inhibition
Method: as §1

C. krusei ATCC 6258 = experiment: MIC assay, Candida standard strain (CLSI M27-A3); format: cell-based; settings: Pichia kudriavzevii, ATCC6258; C. krusei ATCC 6258 (quality-control strain); 24 h, 35° C.
Method: as §1

[7] = test system: Candida albicans ATCC MYA-2876; experiment: MIC assay, Candida standard strain (CLSI M27-A3); format: cell-based; settings: 24 h, 35° C.
Method: as §1

[8] = test system: Candida albicans ATCC 76485; experiment: MIC assay, Candida standard strain (CLSI M27-A3); format: cell-based; settings: ATCC76485, 24 h, 35° C.
Method: as §1

C. glabrata ATCC 15126 = experiment: MIC assay, Candida standard strain (CLSI M27-A3); format: cell-based; settings: Nakaseomyces glabratus, ATCC15126, 24 h, 35° C.
Method: as §1

[9] = test system: Candida albicans ATCC 64124; experiment: MIC assay, Candida standard strain (CLSI M27-A3); format: cell-based; settings: ATCC64124, 24 h, 35° C.
Method: as §1

[10] = test system: Candida albicans CMCC 98001; experiment: MIC assay, Candida standard strain (CLSI M27-A3); format: cell-based; settings: CMCC98001, 24 h, 35° C.
Method: as §1

[11] = test system: Candida albicans ATCC 90028; experiment: MIC assay, Candida standard strain (CLSI M27-A3); format: cell-based; settings: ATCC90028, 24 h, 35° C., >50% growth inhibition
Method: as §1

[12] = test system: Candida albicans ATCC 14053; experiment: MIC assay, Candida standard strain (CLSI M27-A3); format: cell-based; settings: ATCC14053, 24 h, 35° C.
Method: as §1

[13] = test system: Candida albicans ATCC MYA-1023; experiment: MIC assay, Candida standard strain (CLSI M27-A3); format: cell-based; settings: 24 h, 35° C.
Method: as §1

[14] = test system: Candida albicans ATCC MYA-574; experiment: MIC assay, Candida standard strain (CLSI M27-A3); format: cell-based; settings: 24 h, 35° C.
Method: as §1

C. tropicalis ATCC 750 = experiment: MIC assay, Candida standard strain (CLSI M27-A3); format: cell-based; settings: ATCC750, 24 h, 35° C.
Method: as §1

[15] = test system: C. parapsilosis ATCC 22019; experiment: MIC assay, Candida standard strain (CLSI M27-A3); format: cell-based; settings: Lodderomyces parapsilosis, ATCC22019; C. parapsilosis ATCC 22019 (quality-control strain); 24 h, 35° C.
Method: as §1

[16] = rat, in vivo, iv
[17] = test system: Cryptococcus neoformans ATCC 208821; experiment: MIC assay, yeast-type fungi (CLSI M27-A3); format: cell-based; settings: ATCC208821, 24 h, 35° C.
[18] = test system: Aspergillus fumigatus ATCC 204305; experiment: MEC assay, Aspergillus standard strain (CLSI M38-A2); format: cell-based; settings: 21-26 h, 28° C.
Method: After gradient dilution of test compounds, an MIC assay was performed on a Candida standard strain, and an MEC assay was performed on an Aspergillus standard strain.
The colonies on the plate were covered with 0.85% physiological saline (1 mL) or sterile water (polysorbate 20 was added to a final concentration of 0.1%-0.01%). […] The resuspension of spore hyphae was transferred to a sterile test tube, and left to stand for 3-5 min to precipitate heavier particles. The homogeneous suspension on the upper layer was transferred to a new sterile test tube, and the tube was capped closely, and subjected to vortex shaking for 15 s (note: the suspension can produce an aerosol when the cap is reopened). The concentration of the suspension was adjusted to an OD value of 0.09-0.13 at 530 nm by using a spectrophotometer. […] Within 2 h after dilution, 100 μL of the diluted suspension was added to each well in a 96-well plate (the concentration of spores in the final drug sensitive plate should be 0.4×10^4-5×10^4 CFU/mL).
In order to accurately determine MEC value, vortex oscillation should not be allowed before reading the plate.

[19] = test system: Pichia guilliermondii ATCC 6260; experiment: MIC assay, yeast-type fungi (CLSI M27-A3); format: cell-based; settings: Meyerozyma guilliermondii, ATCC6260, 24 h, 35° C.
Method: as §1

in vivo = settings: SD, rat, iv

CCCCCOc1cc(F)c(C#Cc2ccc3cc(C(=O)N[C@H]4C[C@@H](O)[C@@H](OCC[N+](C)(C)C)NC(=O)[C@@H]5[C@@H](O)[C@@H](C)CN5C(=O)[C@H]([C@@H](C)O)NC(=O)[C@H]([C@H](O)[C@@H](O)c5ccc(O)cc5)NC(=O)[C@@H]5C[C@@H](O)CN5C(=O)[C@H]([C@@H](C)O)NC4=O)ccc3c2)cc1F [Example 16] (X1-[Orn(4R-OH,5R-OCH2CH2NMe3+)]T[Hyp][hTyr(3S-OH,4S-OH)]T[Pro(3S-OH,4S-Me)]; lactam 1-C)
MIC [1]: ≤ 0.015 µg/mL
MIC [2]: 0.03 µg/mL
MIC [3]: ≤ 0.015 µg/mL
MIC [4]: ≤ 0.015 µg/mL
MIC [5]: 0.03 µg/mL
MIC [6]: 0.03 µg/mL
MIC (C. krusei ATCC 6258): 0.06 µg/mL
MIC [7]: ≤ 0.015 µg/mL
MIC [8]: ≤ 0.015 µg/mL
MIC (C. glabrata ATCC 15126): 0.06 µg/mL
MIC [9]: ≤ 0.015 µg/mL
MIC [10]: ≤ 0.015 µg/mL
MIC [11]: 0.03 µg/mL
MIC [12]: ≤ 0.015 µg/mL
MIC [13]: ≤ 0.015 µg/mL
MIC [14]: ≤ 0.015 µg/mL
MIC (C. tropicalis ATCC 750): ≤ 0.015 µg/mL
MIC [15]: 0.5 µg/mL
drug exposure level (Cmax and AUC) and half-life (T1/2) in the blood plasma compared with rezafungin [16]: significantly higher
MIC [17]: 8 µg/mL
MEC [18]: ≤0.015 µg/mL
MIC [19]: 0.25 µg/mL
AUC(0-inf) (in vivo; 2.5 mg/kg): 275 µg·h/mL
AUC(0-t) (in vivo; 2.5 mg/kg): 206 µg·h/mL
Cmax (in vivo; 2.5 mg/kg): 6080 ng/mL
MRT last (in vivo; 2.5 mg/kg): 26.1 h
Vd (in vivo; 2.5 mg/kg): 0.49 L/kg
clearance (in vivo; 2.5 mg/kg): 0.15 mL/min/kg
half-life (in vivo; 2.5 mg/kg): 37.3 h
AUC(0-inf) (in vivo; 5 mg/kg): 424 µg·h/mL
AUC(0-t) (in vivo; 5 mg/kg): 326 µg·h/mL
Cmax (in vivo; 5 mg/kg): 12000 ng/mL
MRT last (in vivo; 5 mg/kg): 24.2 h
Vd (in vivo; 5 mg/kg): 0.591 L/kg
clearance (in vivo; 5 mg/kg): 0.2 mL/min/kg
half-life (in vivo; 5 mg/kg): 34.8 h
